The source of these data is patent publication US20090130707A1, “Methods of reducing the inhibitory effect of a redox active metal ion on the enzymatic hydrolysis of cellulosic material” (priority 2007, published 2009).

The test system of assay [1] is Cellulolytic Enzyme Composition #2. The assay is described as follows: mini-scale PCS hydrolysis by Cellulolytic Enzyme Composition #2. The format is biochemical, Trichoderma reesei. How it is done: Corn stover was pretreated at the U.S. Department of Energy National Renewable Energy Laboratory (NREL), […], Colo., USA, using dilute sulfuric acid. The following conditions were used for the pretreatment: 1.4 wt % sulfuric acid at 195° C. for 4.5 minutes. According to limit digestion with excess cellulase enzymes, the water-insoluble solids in the pretreated corn stover (PCS) contained 59.5% cellulose. Prior to use, the PCS was washed with a large volume of deionized water until soluble acid and sugars were removed. The dry weight of the water-washed PCS was 19.16%.
The effect of various salts (FeSO4, FeCl2, NaCl, Na2SO4, MnSO4, MnCl2) was determined in the hydrolysis of PCS by Cellulolytic Enzyme Composition #2. […] Cellulolytic Enzyme Composition #2 was added at 0.25 g per liter. Reactions without the addition of the salt served as controls. The capped tubes were incubated at 50° C. in an INNOVA® 4080 incubator shaker (New Brunswick Scientific Co., Inc., Edison, N.J., USA) at 150 rpm.
Aliquots of the suspensions, sampled over time, were filtered by centrifugation using a 0.45 μm MULTISCREEN® HV membrane (Millipore, Billerica, Mass., USA) at 2000 rpm for 15 minutes using a SORVALL® RT7 centrifuge (Thermo Fisher Scientific, Waltham, Mass., USA). When not used immediately, the filtered sugary aliquots were frozen at −20° C. Sugar concentrations of the samples diluted in 0.005 M H2SO4 were measured after elution from a 4.6×250 mm AMINEX® HPX-87H column (Bio-Rad, Hercules, Calif., USA) by 0.005 M H2SO4 at a flow rate of 0.4 ml/minute at 65° C. with quantitation by integration of glucose and cellobiose using refractive index detection (CHEMSTATION®, AGILENT® 1100 HPLC, Agilent Technologies, Santa Clara, Calif., USA) calibrated with standards of glucose and cellobiose. The resultant equivalents were used to calculate the percentage of cellulose conversion for each reaction.
The degree of cellulose conversion to glucose plus cellobiose (% conversion) was calculated using the following equation:
% Conversion=(glucose+cellobiose×1.053)(mg/ml)×100×162/cellulose(mg/ml)×180)=(glucose+cellobiose×1.053)(mg/ml)×100/(cellulose(mg/ml)×1.111)
In this equation the factor 1.111 reflects the weight gain in converting cellulose to glucose, and the factor 1.053 reflects the weight gain in converting cellobiose to glucose. Cellulose in PCS was determined by a limit digest of PCS to release glucose and cellobiose.

Assay [2] relates to Cellulolytic Enzyme Composition #1. The assay is described as follows: mini-plate-scale AVICEL hydrolysis by Cellulolytic Enzyme Composition #1. It counts as biochemical, Trichoderma reesei.
Assay [3] deals with T1, Trichoderma reesei Cel7A cellobiohydrolase I (Trichoderma reesei, UniProt P62694).
T1 construct: made in house
T1 sequence (P62694 18-513): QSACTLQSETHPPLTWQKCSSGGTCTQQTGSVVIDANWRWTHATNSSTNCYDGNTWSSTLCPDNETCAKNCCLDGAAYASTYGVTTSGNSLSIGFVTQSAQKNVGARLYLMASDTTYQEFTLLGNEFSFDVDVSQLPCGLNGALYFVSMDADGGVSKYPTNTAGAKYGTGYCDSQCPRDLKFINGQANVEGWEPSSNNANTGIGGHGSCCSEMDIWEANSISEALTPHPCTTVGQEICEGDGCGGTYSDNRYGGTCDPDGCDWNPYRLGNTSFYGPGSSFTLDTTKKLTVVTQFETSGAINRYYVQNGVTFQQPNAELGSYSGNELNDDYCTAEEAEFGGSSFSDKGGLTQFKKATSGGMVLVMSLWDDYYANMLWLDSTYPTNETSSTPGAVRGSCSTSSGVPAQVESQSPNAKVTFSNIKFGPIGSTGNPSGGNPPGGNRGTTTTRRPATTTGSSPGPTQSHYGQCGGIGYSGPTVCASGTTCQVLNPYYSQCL
Put plainly: PASC hydrolysis by Cel7A cellobiohydrolase I. The format is biochemical. To be noted: 10 mM FeSO4; 2 g PASC and 40 mg enzyme per liter (FIG. 20A).

Assay [4] deals with Trichoderma reesei Cel6A cellobiohydrolase II (Trichoderma reesei, UniProt P07987). To be noted: 10 mM FeSO4; 2 g PASC and 40 mg enzyme per liter (FIG. 20B). The procedure: The inhibitory effect of ferrous ion was determined on Trichoderma reesei Cel7A cellobiohydrolase I, Trichoderma reesei Cel6A cellobiohydrolase II, Trichoderma reesei Cel7B endoglucanase I, and Trichoderma reesei Cel5A endoglucanase II using PASC as substrate.
Trichoderma reesei Cel6A cellobiohydrolase II, sequence (P07987 25-471): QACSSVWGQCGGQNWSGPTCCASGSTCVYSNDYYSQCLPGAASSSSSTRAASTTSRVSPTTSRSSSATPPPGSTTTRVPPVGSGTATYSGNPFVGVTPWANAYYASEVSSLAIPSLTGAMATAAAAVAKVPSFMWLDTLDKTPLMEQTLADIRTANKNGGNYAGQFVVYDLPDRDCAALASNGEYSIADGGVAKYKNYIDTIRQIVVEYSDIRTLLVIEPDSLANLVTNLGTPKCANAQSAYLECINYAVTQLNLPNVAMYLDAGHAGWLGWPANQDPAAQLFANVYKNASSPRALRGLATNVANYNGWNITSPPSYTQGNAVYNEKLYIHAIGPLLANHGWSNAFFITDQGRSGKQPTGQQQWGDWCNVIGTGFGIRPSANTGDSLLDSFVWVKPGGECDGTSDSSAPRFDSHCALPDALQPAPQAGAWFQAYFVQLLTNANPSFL
A series of duplicate “mini-scale” hydrolysis reactions were performed according to the procedure described in Example 30, except that 10 mM FeSO4 and 2 g of PASC (dry weight) and 40 mg of enzyme per liter of 50 mM sodium acetate pH 5 were used.

Entries after “also recorded” stand apart in the source; their conditions may differ.

With Ferrous sulfate [FeSO4], the “Effect on PCS hydrolysis” value in assay [1] (10 mM salt, 43.4 g PCS and 0.25 g enzyme per liter, 50 mM sodium acetate pH 5, 50° C.) is listed as “significant inhibition; also recorded: significantly inhibited”. Moreover, the “Effect on the cellulases” value in assay [1] (0.1 and 1 mM) was “did not significantly affect”. In addition, the “Effect on hydrolysis over concentration range” value in assay [2] (0.1 to 10 mM) was “concentration-dependent inhibition”. Besides, in assay [2] (0.5 to 4 mM FeSO4, 0.6 to 4 g AVICEL per liter), the “Type of inhibition (double-reciprocal plots)” value is listed as “mix-type inhibition”. Besides, the Effect on enzyme entry in assay [3] and in assay [4] was “significantly inhibited” throughout.
